{
  "source": "ChEMBL document CHEMBL5380875",
  "about": "“Discovery of a Potent and Oral Available Complex I OXPHOS Inhibitor That Abrogates Tumor Growth and Circumvents MEKi Resistance” (J Med Chem, 2023)",
  "key": {"[1]": {"test": "Toxicity in mouse xenografted with human NCI-H460 cells with high-OXPHOS assessed as reduction in serum ALT level at 30 mg/kg, po bid administered for 18 days", "type": "organism-based", "conditions": "in vivo, 432 h, time 18 day"}, "[2]": {"system": "NCI-H460", "test": "Potentiation of trametinib-induced antitumor activity against human NCI-H460 cells with high-OXPHOS xenografted in mouse assessed as reduction in tumor volume at 30 mg/kg, po bid administered for 18 days and measured every 3 days by electronic caliper analysis", "type": "functional, organism-based", "conditions": "time 18.0 day"}, "[3]": {"test": "AUC (0 to infinity) in ICR mouse at 10 mg/kg, po measured for 24 hrs by LC-MS/MS analysis", "type": "ADME, organism-based", "set-up": "dose 10 mg/kg, time 24 hrs, route po", "conditions": "in vivo"}, "[4]": {"system": "NCI-H460", "test": "Induction of apoptosis in human NCI-H460 cells with high-OXPHOS assessed as early apoptotic cells at 30 nM incubated for 48 hrs by Annexin V-FITC/propidium iodide staining based flow cytometry analysis (reference value: 3.55%)", "type": "functional"}, "[5]": {"system": "NCI-H441", "test": "Antiproliferative activity against human NCI-H441 cells with high-OXPHOS assessed as reduction in cell viability incubated for 5 days by CellTiter 96 cell proliferation assay", "type": "functional, cell-based", "conditions": "NCI-H441, 120 h"}, "[6]": {"biological_target": "Cytochrome P450 2D6 (Homo sapiens, UniProt P10635)", "sequence (P10635 whole entry)": "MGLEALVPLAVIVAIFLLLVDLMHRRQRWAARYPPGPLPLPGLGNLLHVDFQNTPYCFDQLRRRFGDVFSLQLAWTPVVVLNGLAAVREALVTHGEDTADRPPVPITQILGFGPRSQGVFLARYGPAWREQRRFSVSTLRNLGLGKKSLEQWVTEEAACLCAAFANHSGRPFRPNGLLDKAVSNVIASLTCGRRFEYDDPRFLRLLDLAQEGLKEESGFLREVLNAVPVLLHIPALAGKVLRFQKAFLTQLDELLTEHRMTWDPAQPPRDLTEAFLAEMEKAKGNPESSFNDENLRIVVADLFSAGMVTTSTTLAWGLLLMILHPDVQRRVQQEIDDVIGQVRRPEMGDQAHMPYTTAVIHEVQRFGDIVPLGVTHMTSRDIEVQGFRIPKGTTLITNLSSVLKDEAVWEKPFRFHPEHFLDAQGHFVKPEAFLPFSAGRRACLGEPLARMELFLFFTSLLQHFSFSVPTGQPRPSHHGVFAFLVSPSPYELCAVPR", "test": "Inhibition of CYP2D6 in human liver microsomes", "type": "ADME, Microsome"}, "[7]": {"test": "Toxicity in mouse xenografted with human NCI-H460 cells with high-OXPHOS assessed as reduction in serum BUN level at 30 mg/kg, po bid administered for 18 days", "type": "organism-based", "conditions": "in vivo, 432 h, time 18 day"}, "[8]": {"system": "NCI-H460", "test": "Antiproliferative activity against human NCI-H460 cells with high-OXPHOS assessed as reduction in cell viability incubated for 5 days by CellTiter 96 cell proliferation assay", "type": "functional, cell-based", "conditions": "NCI-H460, 120 h"}, "[9]": {"biological_target": "Cytochrome P450 2C19 (Homo sapiens, UniProt P33261)", "sequence (P33261 whole entry)": "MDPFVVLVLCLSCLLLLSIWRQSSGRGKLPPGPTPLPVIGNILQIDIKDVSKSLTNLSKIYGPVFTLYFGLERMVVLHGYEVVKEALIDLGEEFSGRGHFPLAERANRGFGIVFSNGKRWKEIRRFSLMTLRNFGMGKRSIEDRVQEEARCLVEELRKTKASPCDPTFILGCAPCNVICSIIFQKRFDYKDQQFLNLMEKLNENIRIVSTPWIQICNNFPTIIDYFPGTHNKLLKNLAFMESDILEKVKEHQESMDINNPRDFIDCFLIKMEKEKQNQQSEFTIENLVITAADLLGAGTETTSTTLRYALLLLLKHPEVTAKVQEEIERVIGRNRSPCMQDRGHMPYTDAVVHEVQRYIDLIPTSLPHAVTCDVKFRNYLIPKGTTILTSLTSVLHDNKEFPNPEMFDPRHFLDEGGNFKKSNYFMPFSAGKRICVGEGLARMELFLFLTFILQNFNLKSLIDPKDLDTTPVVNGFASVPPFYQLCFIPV", "test": "Inhibition of CYP2C19 in human liver microsomes", "type": "ADME, Microsome"}, "[10]": {"system": "A549", "test": "Antiproliferative activity against human Trametinib-resistant A549 cells with high-OXPHOS assessed as reduction in cell viability incubated for 5 days by CellTiter 96 cell proliferation assay", "type": "functional, cell-based", "conditions": "A549, 120 h"}, "[11]": {"test": "AUC (0 to infinity) in ICR mouse at 1 mg/kg, iv measured for 24 hrs by LC-MS/MS analysis", "type": "ADME, organism-based", "set-up": "dose 1 mg/kg, time 24 hrs, route iv", "conditions": "in vivo"}, "[12]": {"test": "Toxicity in mouse xenografted with human NCI-H460 cells with high-OXPHOS assessed as pathological changes in kidney at 30 mg/kg, po bid administered for 18 days by H and E staining based analysis", "type": "organism-based", "conditions": "in vivo, 432 h, time 18 day"}, "[13]": {"system": "NCI-H460", "test": "Antitumor activity against human NCI-H460 cells with high-OXPHOS xenografted in mouse assessed as tumor growth inhibition at 30 mg/kg, po bid administered for 18 days and measured every 3 days by electronic caliper analysis", "type": "functional, organism-based", "conditions": "time 18.0 day"}, "[14]": {"test": "Cytotoxicity against human HPNE cells assessed as reduction in cell viability incubated for 5 days by CellTiter 96 cell proliferation assay", "type": "toxicity, cell-based"}, "[15]": {"test": "Cmax in ICR mouse at 1 mg/kg, iv measured for 24 hrs by LC-MS/MS analysis", "type": "ADME, organism-based", "set-up": "dose 1 mg/kg, time 24 hrs, route iv", "conditions": "in vivo"}, "[16]": {"system": "NCI-H460", "test": "Antitumor activity against human NCI-H460 cells with high-OXPHOS xenografted in mouse assessed as reduction in Ki67 expression at 30 mg/kg, po bid administered for 18 days in presence of trametinib by immunohistochemical analysis", "type": "functional, organism-based", "conditions": "time 18.0 day"}, "[17]": {"test": "Tmax in ICR mouse at 1 mg/kg, iv measured for 24 hrs by LC-MS/MS analysis", "type": "ADME, organism-based", "conditions": "in vivo"}, "[18]": {"system": "NCI-H460", "test": "Inhibition of colony formation in human NCI-H460 cells with high-OXPHOS harboring KRAS Q61H mutant incubated for 10 to 14 days in presence of trametinib by crystal violet staining based analysis", "type": "functional, cell-based", "conditions": "time 10-14 day"}, "[19]": {"system": "A549", "test": "Inhibition of mitochondrial respiration in human Trametinib-resistant A549 cell assessed as reduction in maximal oxygen consumption rate at 50 to 200 nM incubated for 12 hrs by seahorse XF96 flux analyzer", "type": "functional, cell-based", "conditions": "dose 50-200 nM"}, "[20]": {"test": "Toxicity in mouse xenografted with human NCI-H460 cells with high-OXPHOS assessed as pathological changes in spleen at 30 mg/kg, po bid administered for 18 days by H and E staining based analysis", "type": "organism-based", "conditions": "in vivo, 432 h, time 18 day"}, "[21]": {"test": "Toxicity in mouse xenografted with human NCI-H460 cells with high-OXPHOS assessed as reduction in serum creatinine level at 30 mg/kg, po bid administered for 18 days", "type": "organism-based", "conditions": "in vivo, 432 h, time 18 day"}, "[22]": {"system": "NCI-H460", "test": "Induction of apoptosis in human NCI-H460 cells with high-OXPHOS assessed as late apoptotic cells at 30 nM incubated for 48 hrs by Annexin V-FITC/propidium iodide staining based flow cytometry analysis (reference value: 12.8%)", "type": "functional"}, "[23]": {"test": "Apparent volume of distribution in ICR mouse at 1 mg/kg, iv measured for 24 hrs by LC-MS/MS analysis", "type": "ADME, organism-based", "conditions": "in vivo, read-out: Vz"}, "[24]": {"system": "NCI-H441", "test": "Inhibition of mitochondrial respiration in human NCI-H441 cells with high-OXPHOS assessed as reduction in spare oxygen consumption rate capacity incubated for 12 hrs by seahorse XF96 flux analyzer", "type": "functional, cell-based", "conditions": "dose 50-200 nM"}, "[25]": {"system": "A549", "test": "Inhibition of colony formation in human Trametinib-resistant A549 cells with high-OXPHOS incubated for 7 days by crystal violet staining based analysis", "type": "functional, cell-based", "conditions": "dose 25-100 nM, time 7.0 day"}, "[26]": {"system": "A549", "test": "Inhibition of mitochondrial respiration in human Trametinib-resistant A549 cell assessed as reduction in basal oxygen consumption rate at 50 to 200 nM incubated for 12 hrs by seahorse XF96 flux analyzer", "type": "functional, cell-based", "conditions": "dose 50-200 nM"}, "[27]": {"system": "NCI-H441", "test": "Inhibition of mitochondrial respiration in human NCI-H441 cells with high-OXPHOS assessed as reduction in maximal oxygen consumption rate incubated for 12 hrs by seahorse XF96 flux analyzer", "type": "functional, cell-based", "conditions": "dose 50-200 nM"}, "[28]": {"test": "AUC (0 to 24 hrs) in ICR mouse at 10 mg/kg, po measured for 24 hrs by LC-MS/MS analysis", "type": "ADME, organism-based", "set-up": "time 24 hrs, dose 10 mg/kg, route po", "conditions": "in vivo"}, "[29]": {"system": "NCI-H441", "test": "Induction of apoptosis in human NCI-H441 cells with high-OXPHOS assessed as late apoptotic cells at 30 nM incubated for 48 hrs by Annexin V-FITC/propidium iodide staining based flow cytometry analysis (reference value: 9.27%)", "type": "functional"}, "[30]": {"test": "MRT (0 to 24 hrs) in ICR mouse at 1 mg/kg, iv measured for 24 hrs by LC-MS/MS analysis", "type": "ADME, organism-based", "conditions": "in vivo"}, "[31]": {"system": "A549", "test": "Induction of apoptosis in human Trametinib-resistant A549 cells with high-OXPHOS harboring KRAS G12S mutant assessed as late apoptotic cells at 20 nM incubated for 72 hrs in presence of trametinib by Annexin V-FITC/propidium iodide staining based flow cytometry analysis (reference value: 4.31%)", "type": "functional"}, "[32]": {"system": "NCI-H460", "test": "Inhibition of mitochondrial complex I NADH-ubiquinone oxidoreductase in human NCI-H460 cells assessed as reduction in NAD+/NADH ratio at 1 uM incubated for 12 hrs by WST-8 method relative to control", "type": "cell-based"}, "[33]": {"system": "NCI-H460", "test": "Inhibition of mitochondrial complex IV in human NCI-H460 cells at 1 uM incubated for 12 hrs by seahorse XF96 metabolic flux analyzer relative to control", "type": "cell-based"}, "[34]": {"test": "Half life in ICR mouse at 10 mg/kg, po measured for 24 hrs by LC-MS/MS analysis", "type": "ADME, organism-based", "conditions": "in vivo"}},
  "note": "Calls of active or inactive are those of the source. The rule behind the calls is not given here.",
  "data": [
    {"smiles": "Cc1c(C(=O)N2CCN(Cc3ccc(OCC(F)(F)F)cc3)CC2)nnn1Cc1ccc(C(=O)Nc2ccc(C(F)(F)F)cc2)nc1", "values": [
      {"measurement": "Activity", "setting": "[1]", "value": "Non-Toxic"},
      {"measurement": "Activity", "setting": "[2]", "value": "Active"},
      {"measurement": "AUC(0-inf)", "setting": "[3]", "value": 2300, "unit": "ng·h/mL"},
      {"measurement": "Activity", "setting": "[4]", "value": 7.08, "unit": "%"},
      {"measurement": "IC50", "setting": "[5]", "value": 29.7, "unit": "nM"},
      {"measurement": "IC50", "setting": "[6]", "value": "> 50000", "unit": "nM"},
      {"measurement": "Activity", "setting": "[7]", "value": "Non-Toxic"},
      {"measurement": "IC50", "setting": "[8]", "value": 5, "unit": "nM"},
      {"measurement": "IC50", "setting": "[9]", "value": "> 50000", "unit": "nM"},
      {"measurement": "IC50", "setting": "[10]", "value": 15.1, "unit": "nM"},
      {"measurement": "AUC(0-inf)", "setting": "[11]", "value": 359, "unit": "ng·h/mL"},
      {"measurement": "Activity", "setting": "[12]", "value": "Non-Toxic"},
      {"measurement": "inhibition", "setting": "[13]", "value": "Active"},
      {"measurement": "IC50 at 5 days", "setting": "[14]", "value": "> 10000", "unit": "nM"},
      {"measurement": "Cmax", "setting": "[15]", "value": 425, "unit": "ng/mL"},
      {"measurement": "Activity", "setting": "[16]", "value": "Active"},
      {"measurement": "Tmax", "setting": "[17]", "value": 4.8, "unit": "min"},
      {"measurement": "inhibition", "setting": "[18]", "value": "Active"},
      {"measurement": "inhibition", "setting": "[19]", "value": "Active"},
      {"measurement": "Activity", "setting": "[20]", "value": "Non-Toxic"},
      {"measurement": "Activity", "setting": "[21]", "value": "Non-Toxic"},
      {"measurement": "Activity", "setting": "[22]", "value": 37.8, "unit": "%"},
      {"measurement": "Vd", "setting": "[23]", "value": 9.34, "unit": "L/kg"},
      {"measurement": "inhibition", "setting": "[24]", "value": "Dose-Dependent Effect"},
      {"measurement": "inhibition", "setting": "[25]", "value": "Dose-Dependent Effect"},
      {"measurement": "inhibition", "setting": "[26]", "value": "Active"},
      {"measurement": "inhibition", "setting": "[27]", "value": "Dose-Dependent Effect"},
      {"measurement": "AUC(0-t) at 24 h", "setting": "[28]", "value": 2170, "unit": "ng·h/mL"},
      {"measurement": "Activity", "setting": "[29]", "value": 30.9, "unit": "%"},
      {"measurement": "MRT last at 24 h", "setting": "[30]", "value": 1.5, "unit": "h"},
      {"measurement": "Activity", "setting": "[31]", "value": 43.4, "unit": "%"},
      {"measurement": "inhibition", "setting": "[32]", "value": 87.5, "unit": "%"},
      {"measurement": "inhibition", "setting": "[33]", "value": 10.4, "unit": "%"},
      {"measurement": "half-life", "setting": "[34]", "value": 2.5, "unit": "h"}
    ]}
  ]
}
